Data reported in patent US5393748A, “Methylenebisphosphonic acid derivatives” (priority 1990, dated 1995).

Tests used:
[1] = tested on: retinoid induced bone resorption in thyroparathyroidectomised rats; experiment: Inhibition of retinoid induced bone resorption in thyroparathyroidectomised rats in vivo; parameters: species or system rat; conditions: 150 μmole/kg
Protocol: (§1) The parathyroid hormone stimulated bone resorption inhibition activity of the compounds in vitro in mouse calvaria, as well as the inhibition of retinoid induced bone resorption in thyroparathyroidectomised rats in vivo were determined (Reynolds & Dingle (Calc Tiss Res 1970; 4:339, and Trechsel et al. (J Clin Invest 1987; 80:1679)).

[2] = tested on: parathyroid hormone stimulated bone resorption in mouse calvaria; experiment: Parathyroid hormone stimulated bone resorption inhibition in vitro in mouse calvaria; assay type: cell-based; conditions: 100 μm
Protocol: as §1

Row | SMILES | Inhibition of resorption (%), in vivo [1] [%] | Inhibition of resorption (%), in vitro [2] [%]
1 | O=P(O)(O)C(Cl)(Cl)P(=O)(O)O [Clodronate, reference compound] | 64 | –
2 | CCOP(=O)(O)C(Nc1ncccc1C)P(=O)(O)OCC (stereo not shown) [[[(3-Methyl-2-pyridinyl)amino]methylidene) Bisphosphonic Acid P,P'-diethyl Ester] | 66 | 43
3 | CCOP(=O)(O)C(Nc1ccccn1)P(=O)(O)OCC (stereo not shown) [[[(2-Pyridinyl)amino]methylidene]bisphosphonic acid P,P'-diethyl ester] | 65 | 33
4 | O=P(O)(O)C(Nc1ccccn1)P(=O)(O)O [[[(2-pyridinyl)amino]methylidene]bisphosphonate, reference compound] | > 100 | 56
5 | Cc1cccnc1NC(P(=O)(O)O)P(=O)(O)O [[[(3-methyl 2-pyridinyl)amino]methylidene]bisphosphonate, reference compound] | – | 51
6 | CC(C)OP(=O)(O)C(Sc1ccccn1)P(=O)(O)O (stereo not shown) [[[(2-Pyridinyl)thio]methylidene]bisphosphonic Acid Monoisopropyl Ester] | 87 | 50
